Test results as given in ChEMBL document CHEMBL3044688, “Degradation of the Herbicides Thiobencarb, Butachlor and Molinate by a Newly Isolated Aspergillus niger” (J Pestic Sci, 2004).

Assays:
Format in all cases: ADME, organism-based
Aspergillus niger [1] = assay: Drug degradation in Aspergillus niger van Tieghem grown on sucrose-containing Czapek-Dox medium at 100 ppm after 7 days; details: 168 h
Aspergillus niger [2] = assay: Drug degradation in Aspergillus niger van Tieghem grown on sucrose-containing Czapek-Dox medium at 20 ppm after 7 days; details: 168 h
Aspergillus niger [3] = assay: Drug degradation in Aspergillus niger van Tieghem grown on Czapek-Dox medium at 20 ppm after 36 hr at 30 degC in presence of 1 g/l NaNO3
Aspergillus niger [4] = assay: Drug degradation in Aspergillus niger van Tieghem grown on Czapek-Dox medium at 20 ppm after 36 hr at 30 degC in presence of 0.01 g/l NaNO3
Aspergillus niger [5] = assay: Drug degradation in Aspergillus niger van Tieghem at 20 ppm after 36 hr at 30 degC
Aspergillus niger [6] = assay: Drug degradation in Aspergillus niger van Tieghem grown on Czapek-Dox medium at 20 ppm after 36 hr at 30 degC in presence of 0.5 to 2 g/l NaNO3

CCNc1nc(NC(C)C)nc(SC)n1 [AMETRYNE]
Stability (Aspergillus niger [1]): Stable

CCCCOCN(C(=O)CCl)c1c(CC)cccc1CC [BUTACHLOR]
Stability (Aspergillus niger [2]): Unstable

CCSC(=O)N1C=CC=CC=C1 [S-ETHYLAZEPINE-1-CARBOTHIOATE]
Stability (Aspergillus niger [1]): Unstable

CCN(CC)C(=O)SCc1ccc(Cl)cc1 [THIOBENCARB]
Stability (Aspergillus niger [3]): Unstable | Stability (Aspergillus niger [4]): Unstable | Stability (Aspergillus niger [5]): Unstable | Stability (Aspergillus niger [6]): Unstable
